Measurements: ChEMBL document CHEMBL1201861, “Genomics of Drug Sensitity in Cancer screening data, Wellcome Trust Sanger Institute”

What was measured:
Experiment in all cases: cells
Conditions in all cases: Homo sapiens
CP50-MEL-B = format: functional, cell-based
Description: SANGER: Inhibition of human CP50-MEL-B cell growth in a cell viability assay.

Ca-Ski = format: functional, cell-based
Description: SANGER: Inhibition of human Ca-Ski cell growth in a cell viability assay.

Ca9-22 = format: functional, cell-based
Description: SANGER: Inhibition of human Ca9-22 cell growth in a cell viability assay.

DU-145 = format: functional, cell-based
Description: SANGER: Inhibition of human DU-145 cell growth in a cell viability assay.

Detroit 562 = format: functional, cell-based
Description: SANGER: Inhibition of human Detroit562 cell growth in a cell viability assay.

EFM-19 = format: functional, cell-based
Description: SANGER: Inhibition of human EFM-19 cell growth in a cell viability assay.

EFO-21 = format: functional, cell-based
Description: SANGER: Inhibition of human EFO-21 cell growth in a cell viability assay.

FTC-133 = format: functional, cell-based
GP5d = format: functional, cell-based
Description: SANGER: Inhibition of human GP5d cell growth in a cell viability assay.

HCC1395 = format: functional, cell-based
Description: SANGER: Inhibition of human HCC1395 cell growth in a cell viability assay.

HCC 2998 = format: functional, cell-based
Description: SANGER: Inhibition of human HCC2998 cell growth in a cell viability assay.

HCT-15 = format: functional, cell-based
Description: SANGER: Inhibition of human HCT-15 cell growth in a cell viability assay.

HEC-1 = format: functional, cell-based
Description: SANGER: Inhibition of human HEC-1 cell growth in a cell viability assay.

HPAF-II = format: functional, cell-based
Description: SANGER: Inhibition of human HPAF-II cell growth in a cell viability assay.

HT-1080 = format: functional, cell-based
Description: SANGER: Inhibition of human HT-1080 cell growth in a cell viability assay.

HuCCT-1 = format: functional, cell-based, HuCCT1
Description: SANGER: Inhibition of human HuCCT1 cell growth in a cell viability assay.

IGROV-1 = format: functional, cell-based
Description: SANGER: Inhibition of human IGROV-1 cell growth in a cell viability assay.

KP-N-YN = format: functional, cell-based
Description: SANGER: Inhibition of human KP-N-YN cell growth in a cell viability assay.

LU-99A = format: functional, cell-based
Description: SANGER: Inhibition of human LU-99A cell growth in a cell viability assay.

MCF7 = format: functional, cell-based
Description: SANGER: Inhibition of human MCF7 cell growth in a cell viability assay.

ME-180 = format: functional, cell-based
Description: SANGER: Inhibition of human ME-180 cell growth in a cell viability assay.

MEL-HO = format: functional, cell-based
Description: SANGER: Inhibition of human MEL-HO cell growth in a cell viability assay.

NB14 = format: functional, cell-based
Description: SANGER: Inhibition of human NB14 cell growth in a cell viability assay.

NCI-H1573 = format: functional, cell-based
Description: SANGER: Inhibition of human NCI-H1573 cell growth in a cell viability assay.

NCI-H1703 = format: functional, cell-based
Description: SANGER: Inhibition of human NCI-H1703 cell growth in a cell viability assay.

NCI-H1792 = format: functional, cell-based
Description: SANGER: Inhibition of human NCI-H1792 cell growth in a cell viability assay.

NCI-H2122 = format: functional, cell-based
Description: SANGER: Inhibition of human NCI-H2122 cell growth in a cell viability assay.

NCI-H2342 = format: functional, cell-based
Description: SANGER: Inhibition of human NCI-H2342 cell growth in a cell viability assay.

NCI-H727 = format: functional, cell-based
Description: SANGER: Inhibition of human NCI-H727 cell growth in a cell viability assay.

OVCAR-3 = format: functional, cell-based
Description: SANGER: Inhibition of human OVCAR-3 cell growth in a cell viability assay.

PANC-08-13 = format: functional, cell-based
Description: SANGER: Inhibition of human PANC-08-13 cell growth in a cell viability assay.

RCM-1 = format: functional, cell-based
Description: SANGER: Inhibition of human RCM-1 cell growth in a cell viability assay.

SBC-5 = format: functional, cell-based
Description: SANGER: Inhibition of human SBC-5 cell growth in a cell viability assay.

SNU-423 = format: functional, cell-based
Description: SANGER: Inhibition of human SNU-423 cell growth in a cell viability assay.

SW-620 = format: functional, cell-based
Description: SANGER: Inhibition of human SW620 cell growth in a cell viability assay.

8305C = format: functional, cell-based
Description: SANGER: Inhibition of human 8305C cell growth in a cell viability assay.

BPH-1 = format: functional, cell-based
Description: SANGER: Inhibition of human BPH-1 cell growth in a cell viability assay.

BT-20 = format: functional, cell-based
Description: SANGER: Inhibition of human BT-20 cell growth in a cell viability assay.

CAL-120 = format: functional, cell-based
Description: SANGER: Inhibition of human CAL-120 cell growth in a cell viability assay.

U-251 = format: functional, cell-based
Description: SANGER: Inhibition of human U251 cell growth in a cell viability assay.

YAPC = format: functional, cell-based
Description: SANGER: Inhibition of human YAPC cell growth in a cell viability assay.

CAPAN-1 = format: functional, cell-based
Description: SANGER: Inhibition of human CAPAN-1 cell growth in a cell viability assay.

CHL-1 = format: functional, cell-based
Description: SANGER: Inhibition of human CHL-1 cell growth in a cell viability assay.

CHP-212 = format: functional, cell-based
Description: SANGER: Inhibition of human CHP-212 cell growth in a cell viability assay.

COLO-680N = format: functional, cell-based
Description: SANGER: Inhibition of human COLO-680N cell growth in a cell viability assay.

## C[C@]12O[C@H](C[C@]1(O)CO)n1c3ccccc3c3c4c(c5c6ccccc6n2c5c31)CNC4=O [LESTAURTINIB]
CP50-MEL-B
  IC50: 0.632 µM
Ca-Ski
  IC50: > 2 µM
Ca9-22
  IC50: 0.9 µM
DU-145
  IC50: > 2 µM
Detroit 562
  IC50: 0.236 µM
EFM-19
  IC50: 0.151 µM
EFO-21
  IC50: > 2 µM
FTC-133
  IC50: 0.158 µM
GP5d
  IC50: 0.177 µM
HCC1395
  IC50: > 2 µM
HCC 2998
  IC50: 0.554 µM
HCT-15
  IC50: 0.566 µM
HEC-1
  IC50: 0.374 µM
HPAF-II
  IC50: > 2 µM
HT-1080
  IC50: 0.0403 µM
HuCCT-1
  IC50: 0.862 µM
IGROV-1
  IC50: 0.452 µM
KP-N-YN
  IC50: 1.96 µM
LU-99A
  IC50: 1.01 µM
MCF7
  IC50: > 2 µM
ME-180
  IC50: 0.737 µM
MEL-HO
  IC50: 0.12 µM
NB14
  IC50: 0.0196 µM
NCI-H1573
  IC50: 0.686 µM
NCI-H1703
  IC50: 0.345 µM
NCI-H1792
  IC50: 0.88 µM
NCI-H2122
  IC50: 1.92 µM
NCI-H2342
  IC50: > 2 µM
NCI-H727
  IC50: 0.768 µM
OVCAR-3
  IC50: > 2 µM
PANC-08-13
  IC50: > 2 µM
RCM-1
  IC50: 1.59 µM
SBC-5
  IC50: 0.254 µM
SNU-423
  IC50: 0.731 µM
SW-620
  IC50: 0.557 µM
8305C
  IC50: > 2 µM
BPH-1
  IC50: 1.3 µM
BT-20
  IC50: 1.65 µM
CAL-120
  IC50: 0.336 µM
U-251
  IC50: > 2 µM
YAPC
  IC50: > 2 µM
CAPAN-1
  IC50: > 2 µM
CHL-1
  IC50: 0.0135 µM
CHP-212
  IC50: 0.0822 µM
COLO-680N
  IC50: > 2 µM

## Cn1cc(/C=C2\C(=O)Nc3cccnc32)c2ccccc21
CP50-MEL-B
  IC50: > 2 µM
Ca-Ski
  IC50: > 2 µM
Ca9-22
  IC50: > 2 µM
DU-145
  IC50: > 2 µM
Detroit 562
  IC50: > 2 µM
EFM-19
  IC50: > 2 µM
EFO-21
  IC50: > 2 µM
FTC-133
  IC50: > 2 µM
GP5d
  IC50: > 2 µM
HCC1395
  IC50: > 2 µM
HCC 2998
  IC50: > 2 µM
HCT-15
  IC50: > 2 µM
HEC-1
  IC50: > 2 µM
HPAF-II
  IC50: > 2 µM
HT-1080
  IC50: > 2 µM
HuCCT-1
  IC50: > 2 µM
IGROV-1
  IC50: > 2 µM
KP-N-YN
  IC50: > 2 µM
LU-99A
  IC50: > 2 µM
MCF7
  IC50: > 2 µM
ME-180
  IC50: > 2 µM
MEL-HO
  IC50: > 2 µM
NB14
  IC50: > 2 µM
NCI-H1573
  IC50: > 2 µM
NCI-H1703
  IC50: 0.299 µM
NCI-H1792
  IC50: > 2 µM
NCI-H2122
  IC50: > 2 µM
NCI-H2342
  IC50: > 2 µM
NCI-H727
  IC50: > 2 µM
OVCAR-3
  IC50: > 2 µM
PANC-08-13
  IC50: > 2 µM
RCM-1
  IC50: > 2 µM
SBC-5
  IC50: > 2 µM
SNU-423
  IC50: > 2 µM
SW-620
  IC50: > 2 µM
8305C
  IC50: > 2 µM
BPH-1
  IC50: > 2 µM
BT-20
  IC50: > 2 µM
CAL-120
  IC50: > 2 µM
U-251
  IC50: > 2 µM
YAPC
  IC50: > 2 µM
CAPAN-1
  IC50: > 2 µM
CHL-1
  IC50: > 2 µM
CHP-212
  IC50: > 2 µM
COLO-680N
  IC50: > 2 µM
